Where a name gives a salt, the structure may show the parent alone. Read-outs that look alike come from different tables or passages of the source.
Columns and labels:
Type in all cases: in vivo
Male mice of ddY strain [1] = experiment: Test 1 Anti-nicotine activity (inhibition of nicotine-induced convulsive death); settings: 200 mg/kg po, nicotine 2 mg/kg iv after 1 h, observed 1 h; for responders at 200 mg/kg: Mus musculus
Protocol: Male mice of ddY strain, weighing 28 to 33 g, were used in groups of eight or twelve. The test compounds were dissolved in distilled water and administered orally in a dose of 200 mg/kg. After an hour, nicotine was intravenously administered in a dose of 2 mg/kg.

Male mice of ddY strain [2] = experiment: Test 2 Anti-tremorine activity (inhibition of tremorine-induced tremor); settings: for responders at 50 mg/kg: Mus musculus, po, read-out: Inhibition of tremor (%)
Protocol: Male mice of ddY strain, weighing 28 to 32 g, were used in groups of eight or ten. The test compounds were dissolved in distilled water and administered orally in a dose of 50 mg/kg. After 30 minutes, tremorine dihydrochloride was subcutaneously administered in a dose of 20 mg/kg. Then, the occurrence of tremor was observed after the lapse of 30 and 60 minutes.

[3] = Test 5 Acute toxicity (LD50, method of Behrens and Kärbar); settings: mouse, in vivo, po, mice, observed for 7 days
Protocol: Male mice of ddY strain, weighing 25 to 30 g, were used in groups of five. The test compounds were dissolved in distilled water and administered orally in various doses. […] Then, the LDso was calculated according to the method of Behrens and Kärbar.

Male mice of ddY strain [4] = experiment: Test 3 Muscle relaxant activity (traction test, method of Courvoisier et al.); settings: 15 minutes after administration, groups of ten
Protocol: Male mice of ddY strain, weighing 30 to 37 g, were used in groups of ten. The test compounds were dissolved in physiological saline and administered intraperitoneally in a dose of 50 or 75 mg/kg. […] This method involves a traction test in which the animal is hung by its forelimbs on a horizontal metal rod (2 mm in diameter) placed 20 cm above the floor and examined as to whether it can put its hindlimb on the rod or not.
Specifically, 15 minutes after administration of a test compound, the mouse was hung on the rod by its forelimbs. […] It had been confirmed in preliminary tests that, under normal conditions, all the mice could put their hindlimb on the rod within 5 seconds.

[5] = po, 1 h, Table-2a, 8 animals used
[6] = 0.5 h, Table-3a, 50 mg/kg po, After 30 min. from tremorine 20 mg/kg sc, 8 animals used
[7] = 1 h, Table-3a, 50 mg/kg po, After 60 min. from tremorine 20 mg/kg sc, 8 animals used
[8] = Table-3a, 50 mg/kg po, After 30 min. from tremorine 20 mg/kg sc, 8 animals used
[9] = Table-3a, 50 mg/kg po, After 60 min. from tremorine 20 mg/kg sc, 8 animals used
[10] = po, 1 h, Table-2c, 12 animals used
[11] = 0.5 h, Table-3d, 50 mg/kg po, After 30 min., 10 animals used
[12] = 1 h, Table-3d, 50 mg/kg po, After 60 min., 10 animals used
[13] = Table-3d, 50 mg/kg po, After 30 min., 10 animals used
[14] = Table-3d, 50 mg/kg po, After 60 min., 10 animals used

CCC(CN1CCCC1)C(=O)c1ccc(C2CC2)cc1.Cl (stereo not shown) [Example 10, 1-(4-Cyclopropylphenyl)-2-ethyl-3-(1-pyrrolidinyl)-1-propanone hydrochloride]
responders at 200 mg/kg (Male mice of ddY strain [1]; [5]): 0%
Number of surviving animals (Male mice of ddY strain [1]; Table-2a, 8 animals used): 0
responders at 50 mg/kg (Male mice of ddY strain [2]; [6]): 100%
responders at 50 mg/kg (Male mice of ddY strain [2]; [7]): 100%
Number of animals exhibiting no tremor (Male mice of ddY strain [2]; [8]): 8
Number of animals exhibiting no tremor (Male mice of ddY strain [2]; [9]): 8

CCC(CN1CCCC1)C(=O)c1ccc2c(c1)OCO2 (stereo not shown) [Example 56, 2-Ethyl-1-(3,4-methylenedioxyphenyl)-3-(1-pyrrolidi-nyl)-1-propanone hydrochloride]
responders at 200 mg/kg (Male mice of ddY strain [1]; Table-2b, 12 animals used): 41.7%
Number of surviving animals (Male mice of ddY strain [1]; Table-2b, 12 animals used): 5

Cc1ccc(C(=O)C(C)CN2CCCCC2)cc1 (stereo not shown) [Tolperisone HCl, 2-methyl-1-(4-methylphenyl)-3-(1-piperidinyl)-1-propanone, reference compound]
LD50 at 168 h ([3]; Table-5a): 625 mg/kg
LD50 at 168 h ([3]; Table-5b): 655 mg/kg
LD50 at 168 h ([3]; Table-5c): 595 mg/kg
responders at 200 mg/kg (Male mice of ddY strain [1]; [5]): 0%
responders at 200 mg/kg (Male mice of ddY strain [1]; po, 1 h, Table-2b, 12 animals used): 0%
responders at 200 mg/kg (Male mice of ddY strain [1]; [10]): 8.3%
Number of animals exhibiting muscle relaxation (Male mice of ddY strain [4]; Table-4a, 50 mg/kg ip): 1
Number of animals exhibiting muscle relaxation (Male mice of ddY strain [4]; Table-4d, 75 mg/kg ip): 1
responders at 50 mg/kg (Male mice of ddY strain [2]; [6]): 0%
responders at 50 mg/kg (Male mice of ddY strain [2]; 0.5 h, Table-3b, 50 mg/kg po, After 30 min., 10 animals used): 0%
responders at 50 mg/kg (Male mice of ddY strain [2]; [11]): 0%
responders at 50 mg/kg (Male mice of ddY strain [2]; [7]): 0%
responders at 50 mg/kg (Male mice of ddY strain [2]; 1 h, Table-3b, 50 mg/kg po, After 60 min., 10 animals used): 0%
responders at 50 mg/kg (Male mice of ddY strain [2]; [12]): 0%
Number of animals exhibiting no tremor (Male mice of ddY strain [2]; [8]): 0
Number of animals exhibiting no tremor (Male mice of ddY strain [2]; [9]): 0
Number of animals exhibiting no tremor (Male mice of ddY strain [2]; Table-3b, 50 mg/kg po, After 30 min., 10 animals used): 0
Number of animals exhibiting no tremor (Male mice of ddY strain [2]; Table-3b, 50 mg/kg po, After 60 min., 10 animals used): 0
Number of animals exhibiting no tremor (Male mice of ddY strain [2]; [13]): 0
Number of animals exhibiting no tremor (Male mice of ddY strain [2]; [14]): 0

CCCC(CN1CCCCCC1)C(=O)c1ccc2c(c1)CCO2.Cl (stereo not shown) [Example 100, 1-(2,3-Dihydro-5-benzofuranyl)-2-n-propyl-3-(hexahydro-1H-azepin-1-yl)-1-propanone hydrochloride]
responders at 200 mg/kg (Male mice of ddY strain [1]; Table-2c, 12 animals used): 0%
Number of surviving animals (Male mice of ddY strain [1]; Table-2c, 12 animals used): 0
responders at 50 mg/kg (Male mice of ddY strain [2]; 0.5 h): 100%
responders at 50 mg/kg (Male mice of ddY strain [2]; 1 h): 100%
Number of animals exhibiting no tremor (Male mice of ddY strain [2]; [13]): 10
Number of animals exhibiting no tremor (Male mice of ddY strain [2]; [14]): 10

CCC(CN1CCCC1)C(=O)c1ccc2c(c1)CCO2.Cl (stereo not shown) [Example 95, 1-(2,3-Dihydro-5-benzofuranyl)-2-ethyl-3-(1-pyrrolidinyl)-1-propanone hydrochloride]
responders at 200 mg/kg (Male mice of ddY strain [1]; Table-2c, 12 animals used): 16.7%
Number of surviving animals (Male mice of ddY strain [1]; Table-2c, 12 animals used): 2
responders at 50 mg/kg (Male mice of ddY strain [2]; 0.5 h): 100%
responders at 50 mg/kg (Male mice of ddY strain [2]; 1 h): 100%
Number of animals exhibiting no tremor (Male mice of ddY strain [2]; [13]): 10
Number of animals exhibiting no tremor (Male mice of ddY strain [2]; [14]): 10

CC(CN1CCCCC1)C(=O)c1ccc(C2CCCCC2)cc1.Cl (stereo not shown) [Example 48, 1-(4-Cyclohexylphenyl)-2-methyl-3-piperidino-1-propanone hydrochloride]
responders at 200 mg/kg (Male mice of ddY strain [1]; [5]): 62.5%
Number of surviving animals (Male mice of ddY strain [1]; Table-2a, 8 animals used): 5
responders at 50 mg/kg (Male mice of ddY strain [2]; [6]): 100%
responders at 50 mg/kg (Male mice of ddY strain [2]; [7]): 37.5%

1-(2,3-Dihydro-5-benzofuranyl)-2-ethyl-3-piperidino-1-propanone hydrochloride [Example 89]
Inhibition of death (%) (Male mice of ddY strain [1]; Table-2c, 12 animals used): 66.7%
Number of surviving animals (Male mice of ddY strain [1]; Table-2c, 12 animals used): 8
Muscle relaxation rate (%) (Male mice of ddY strain [4]; Table-4d, 75 mg/kg ip): 50%
Number of animals exhibiting muscle relaxation (Male mice of ddY strain [4]; Table-4d, 75 mg/kg ip): 5
Inhibition of tremor (%) (Male mice of ddY strain [2]; [13]): 100%
Number of animals exhibiting no tremor (Male mice of ddY strain [2]; [13]): 10
Inhibition of tremor (%) (Male mice of ddY strain [2]; [14]): 100%
Number of animals exhibiting no tremor (Male mice of ddY strain [2]; [14]): 10

CCCC(CN1CCCCC1)C(=O)c1ccc2c(c1)CCO2.Cl (stereo not shown) [Example 99, 1-(2,3-Dihydro-5-benzofuranyl)-2-n-propyl-3-piperidino-1-propanone hydrochloride]
responders at 200 mg/kg (Male mice of ddY strain [1]; [10]): 25%
Number of surviving animals (Male mice of ddY strain [1]; Table-2c, 12 animals used): 3
Number of animals exhibiting muscle relaxation (Male mice of ddY strain [4]; Table-4d, 75 mg/kg ip): 2
responders at 50 mg/kg (Male mice of ddY strain [2]; [11]): 100%
responders at 50 mg/kg (Male mice of ddY strain [2]; [12]): 90%

CC(CN1CCCCC1)C(=O)c1ccc(C2CCCC2)cc1.Cl (stereo not shown) [Example 41, 1-(4-Cyclopentylphenyl)-2-methyl-3-piperidino-1-propanone hydrochloride]
responders at 200 mg/kg (Male mice of ddY strain [1]; [5]): 37.5%
Number of surviving animals (Male mice of ddY strain [1]; Table-2a, 8 animals used): 3
responders at 50 mg/kg (Male mice of ddY strain [2]; [6]): 75%
responders at 50 mg/kg (Male mice of ddY strain [2]; [7]): 12.5%

Reference: patent publication EP0163537A1, “1-Propanone derivatives and pharmaceutical compositions containing same” (priority 1984, dated 1985)
